The target in this test is mGluR2-mGluR2 dimer (Rattus norvegicus, UniProt P31421). Conditions: for change in TRF520 signal in the presence of the compound: delay 50 μs, integration time 450 μs, BG-Lumi4-Tb/BC-fluorescein, dose-dependent; for maximum variation of TRF520 signal: dose-response up to 100 μM DCG-IV / 316 μM glutamate.
Chain of mGluR2-mGluR2 dimer (P31421 23-872): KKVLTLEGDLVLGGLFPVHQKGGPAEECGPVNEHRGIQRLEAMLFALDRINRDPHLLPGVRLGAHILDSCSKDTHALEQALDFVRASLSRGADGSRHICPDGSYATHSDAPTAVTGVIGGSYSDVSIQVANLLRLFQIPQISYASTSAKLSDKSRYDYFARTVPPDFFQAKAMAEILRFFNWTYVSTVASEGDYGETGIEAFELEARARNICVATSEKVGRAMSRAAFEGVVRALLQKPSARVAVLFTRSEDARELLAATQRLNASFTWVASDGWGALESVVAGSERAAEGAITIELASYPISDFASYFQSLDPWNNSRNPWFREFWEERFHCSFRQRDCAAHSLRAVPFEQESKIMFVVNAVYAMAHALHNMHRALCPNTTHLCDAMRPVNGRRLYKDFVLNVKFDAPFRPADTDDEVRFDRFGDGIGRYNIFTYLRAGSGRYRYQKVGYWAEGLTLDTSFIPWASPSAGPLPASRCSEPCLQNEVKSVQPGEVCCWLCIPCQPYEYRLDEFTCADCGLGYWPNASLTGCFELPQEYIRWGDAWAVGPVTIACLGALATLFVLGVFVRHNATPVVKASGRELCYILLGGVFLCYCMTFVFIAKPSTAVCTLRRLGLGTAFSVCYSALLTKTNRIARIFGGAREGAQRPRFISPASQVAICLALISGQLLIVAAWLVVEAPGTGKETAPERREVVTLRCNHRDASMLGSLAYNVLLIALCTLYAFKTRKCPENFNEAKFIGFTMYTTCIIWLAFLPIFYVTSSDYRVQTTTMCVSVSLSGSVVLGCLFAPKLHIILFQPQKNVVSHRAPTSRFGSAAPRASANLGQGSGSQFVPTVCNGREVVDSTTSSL
Chain of mGluR2-mGluR2 dimer (P31421 23-872): as above

Regarding `N[C@H](C(=O)O)C1[C@@H](C(=O)O)[C@@H]1C(=O)O` (stereo partly shown) [DCG-IV], the “change in TRF520 signal in the presence of the compound” value was “inhibiting the TRF520 signal in a dose-dependent manner” and the “maximum variation of TRF520 signal” value is 30%. For the setting “read-out: concentration necessary for obtaining a variation equal to half the maximum variation (close to the pharmacological EC50), TRF520 signal, printed value is given as the pharmacological EC50”, the EC50 was around 400 nM.

Turning to `N[C@@H](CCC(=O)O)C(=O)O` [glutamate, L-glutamic acid], the “change in TRF520 signal in the presence of the compound” value is listed as “decrease in TRF520” and the “maximum variation of TRF520 signal” value is recorded as 50%. The “variation in TRF520” value (glutamate 100 μM, in the absence of the antagonist LY341495) was found to be 50%.

For the compound `COc1ccccc1Oc1ccc(N(Cc2cccnc2)S(=O)(=O)CC(F)(F)F)cc1` [4-MPPTS], under “4-MPPTS 10 μM, glutamate 1-1000 μM”, the “TRF520 signal for a given glutamate concentration, in the presence versus absence of the modulator” value is “greater decrease in signal”.

The values above are taken from US8697380B2, “Method for detecting compounds modulating dimers of VFT domain membrane proteins” (CIS Bio International, priority 2009, dated 2014).
